Data set [1] in a line: Particle size distribution (d90), Malvern Mastersizer 2000, wet dispersion in cyclohexane. It counts as physicochemical. On the procedure: The D90 value is defined such that 90% by volume of the particles have a particle size smaller than the d90 value and 10% by volume of the particles have a greater particle size greater than the d90 value.
Sample solution. Place 50 mg of well mixed sample to a 100 mL beaker. Add 25 mL of cyclohexane. Using Pasteur pipette transfer small aliquots of sample slurry to the measuring cuvette until the concentration reading is good. The beaker is swirled efficiently before each pipetting.
Measurement according to the operating instructions. Perform three successive determinations, from which calculate the mean value.

Data set [2] is described as follows: Solubility of Lenalidomide modifications: saturated solutions in three media, HPLC analysis. The data set is classed as physicochemical. On the procedure:
As the case for their visual appearance, also the solubility of those different Lenalidomide modifications is quite different.
• Solubilities are determined by preparing saturated solutions in the three media, followed by HPLC-analysis.

The mark [3] stands for this setting: as prepared in reference example 1 (not milled).
[4] abbreviates: 0.1M hydrochloric acid, pH 1, simulated gastric fluid, thermodynamic from solid, 0.1M HCl, pH 1.0, read-out: Solubility.
The mark [5] stands for this setting: acetate buffer, pH 4.5, aqueous buffer, thermodynamic from solid, Acetate buffer, pH 4.5, read-out: Solubility.
[6] abbreviates: phosphate buffer, pH 6.8, aqueous buffer, thermodynamic from solid, Phosphate buffer, pH 6.8, read-out: Solubility.

Here are results for five compounds from US10987344B2, “Pharmaceutical composition capable of the incorporation of lenalidomide in various crystalline modifications” (GRINDEKS, A JOINT STOCK COMPANY, priority 2015, dated 2021).

Structures are written as SMILES. Values after ≈ are worked out from the molar mass of the structure shown. Counter-ions that a name gives are not always drawn. Like-named read-outs stand apart in the source and are kept apart here.

A word on the Solubility: it is how much of the substance goes into solution per volume.

As for `Nc1cccc2c1CN(C1CCC(=O)NC1=O)C2=O` (racemic) [Base form A, (RS)-3-(4-Amino-1-oxo 1,3-dihydro-2H-isoindol-2-yl)piperidine-2,6-dione], the “PSD, d90” value in data set [1] (setting [3]) is listed as 219 μm; in data set [1] (example 2, after milling 15 min at 20 Hz), 35 μm. In addition, the Solubility in data set [2] (0.1M HCl, pH 1.0) is listed as 4.76 mg/mL (≈ 18400 µM); in data set [2] (Acetate buffer, pH 4.5), 0.43 mg/mL (≈ 1660 µM); in data set [2] (Phosphate buffer, pH 6.8), 0.39 mg/mL (≈ 1500 µM).
`Nc1cccc2c1CN(C1CCC(=O)NC1=O)C2=O` (racemic) [Base form B, (RS)-3-(4-Amino-1-oxo 1,3-dihydro-2H-isoindol-2-yl)piperidine-2,6-dione]: the Solubility in data set [2] (setting [4]) is 2.74 mg/mL (≈ 10600 µM); in data set [2] (setting [5]) it was 0.33 mg/mL (≈ 1270 µM); in data set [2] (setting [6]), 0.33 mg/mL (≈ 1270 µM).
With `Nc1cccc2c1CN(C1CCC(=O)NC1=O)C2=O` (stereo not shown) [DMSO solvate], the Solubility in data set [2] (setting [4]) was 6.33 mg/mL; in data set [2] (setting [5]), 0.38 mg/mL; in data set [2] (setting [6]), 0.35 mg/mL.
For `Nc1cccc2c1CN(C1CCC(=O)NC1=O)C2=O` (stereo not shown) [HCl salt], the “PSD, d90” value amounted to 434 μm in data set [1] (setting [3]) and 43 μm in data set [1] (example 2, after milling 15 min at 20 Hz, listed as Hydrochloride salt). Further, the Solubility in data set [2] (0.1M HCl, pH 1.0) turned out to be 9.0 mg/mL; in data set [2] (Acetate buffer, pH 4.5) it was 0.37 mg/mL; in data set [2] (Phosphate buffer, pH 6.8) it was 0.33 mg/mL. Moreover, the “Solubility relative to base form B” value in data set [2] (0.1M hydrochloric acid at pH1) is listed as “more than 3 times”.
On to `Nc1cccc2c1CN(C1CCC(=O)NC1=O)C2=O` (stereo not shown) [NH4Cl cocrystal], for which the “PSD, d90” value in data set [1] (setting [3]) was 383 μm; in data set [1] (example 2, after milling 15 min at 20 Hz, listed as Ammonium chloride cocrystal), 31 μm. The Solubility in data set [2] (0.1M HCl, pH 1.0) came out at 7.76 mg/mL; in data set [2] (Acetate buffer, pH 4.5), 0.42 mg/mL; in data set [2] (Phosphate buffer, pH 6.8) it was 0.36 mg/mL.
